“Also recorded” adds a separate entry of the source.
Experiments:
Type in all cases: in vivo, Cryptotis parva
Least Shrew = assay: Emetic effect of arachidonic acid metabolites and leukotrienes in the Least Shrew; conditions: found experimentally
Protocol: Varying doses of leukotriene LTC4 were administered by intraperitoneal injection, and dose-response emetic effects recorded for 30 min post-injection observation period. The graph in FIG. 20 depicts enhancements in the frequency (mean±S.E.M.) of emesis.

[1] = tested on: GR73632-induced emesis and scratching in the Least Shrew; assay: Antagonist interaction study against GR73632 (5 mg/kg, i.p.)-induced emesis and scratching
Description: The present protocols were based upon preliminary studies as well as published findings in the Least Shrew. Darmani, 2001a; Darmani et al., 69 Pharmacol. Biochem. Behay. 239-49 (2001b). On the test day, the shrews were allowed to acclimate to the test laboratory for at least one hour prior to experimentation. To habituate the animals to the test environment, each shrew was randomly selected and transferred to a 20 cm×18 cm×21 cm clean clear plastic cage and offered four mealworms (Tenebrio sp.) 30 min prior to experimentation.
The latter doses of SP and GR73632 were chosen for subsequent antagonist interaction studies to pharmacologically characterize the role of NK1 receptors in the mediation of induced emesis by the use of: (1) two selective neurokinin NK1 receptor antagonists (CP99,994 and L733060) (Watson et al., 115 Br. J. Phramacol. 84-94 (1995); Guiard et al., 89 J. Neurochem. 54-63 (2004)); (2) an NK2 receptor antagonist (GR159897) (Beresford et al., 272 Eur. J. Pharmacol. 241-48 (1995)); and (3) an NK3 receptor antagonist (SB218795) (Salthun-Lassalle et al., 1995).
For the above drug interaction studies, different doses (i.p.) of either CP99,994 (0, 5, 10, and 20 mg/kg, n=10-14 shrews per group); L733060 (0, 5, 10, and 20 mg/kg, n=10-14 shrews per group), GR159897 (0 mg/kg and 20 mg/kg, n=8 per group) or SB218795 (0 or 20 mg/kg, n=7-8 per group) were administered to different groups of shrews 30 min prior to injection of an emetic dose (5 mg/kg, i.p.) of the NK1-receptor agonist GR73632. Emesis and scratchings were recorded for 30 min immediately following GR73632 administration as described above. The antiemetic effect of CP99,994 (0, 5, and 10 mg/kg, n=9-10 animals per group) was also investigated in a similar manner against SP (50 mg/kg, i.p.)-induced emesis.
The data on the frequency of emesis and scratchings were analyzed by the Kruskal-Wallis (KW) nonparametric one-way analysis of variance (ANOVA) and post hoc analysis by Dunn's multiple comparisons test or Mann-Whitney test. A P value of <0.05 was necessary to attain statistical significance. The incidence of emesis (number of shrews vomiting) was analyzed by the Fisher's exact test to determine whether there were differences between groups. When appropriate, pairwise comparisons were also made by this method. Two-way analysis of variance using the Kruskal-Wallis or Fisher's exact tests were initially utilized to respectively analyze the dose-response results of GR73632 on emesis and scratching behaviors, and percentage of shrews vomiting in saporin- and corresponding saline-pretreated control shrews. […] For some emesis data, the two-tailed Mann-Whitney test was used. The SP tissue concentration data were analyzed by a one-way ANOVA followed by Dunnett's t test as post hoc analysis. Fos-IR was quantified by counting immunopositive nuclei within each hemisection containing the region of interest (ROI). The number of nuclei was averaged across sections with the ROI for each animal, and the group mean and standard error obtained.

[2] = tested on: CIS-induced emesis in the Least Shrew; assay: Tropisetron, Δ^9-THC and dexamethasone alone or in combination against CIS (20 mg/kg)-induced emesis, 60 min
Protocol: Briefly, all animals were randomly divided into two groups. On the test day, shrews were habituated to the laboratory environment for at least 1 hr prior to experimentation. […] All drugs were administered at a volume of 0.1 ml/10 g body weight. Immediately following the second injection, each shrew was placed in the observation cage, and both the number of animals vomiting per group and the frequency of vomiting (oral ejections of food or liquid) were recorded for the next 60 min
Poisson regression and logistic regression analyses were employed for two-way analysis of vomiting frequency and protection from emesis, respectively. […] Data regarding the frequency of emesis were analyzed by the Kruskal-Wallis nonparametric one-way analysis of variance (ANOVA), and post hoc analysis by Dunn's multiple comparisons test. The incidence of emesis (number of animals vomiting) was analyzed by Fisher's exact test to determine whether there were differences between groups, and when appropriate, pairwise comparisons were also made. A p value of<0.05 was necessary to achieve statistical significance.

[3] = 1 mg/kg i.p., administered alone
[4] = 5 mg/kg i.p., administered alone
[5] = tropisetron 0.1 mg/kg with 0.5 mg/kg Δ^9-THC
[6] = tropisetron 0.25 mg/kg with 0.25 mg/kg Δ^9-THC
[7] = tropisetron 0.25 mg/kg with 0.5 mg/kg Δ^9-THC
[8] = tropisetron 1 mg/kg with 0.1 mg/kg Δ^9-THC
[9] = tropisetron 1 mg/kg with 0.25 mg/kg Δ^9-THC
[10] = tropisetron 1 mg/kg with 0.5 mg/kg Δ^9-THC
[11] = tropisetron 5 mg/kg with 0.1 mg/kg Δ^9-THC
[12] = tropisetron 5 mg/kg with 0.25 mg/kg Δ^9-THC
[13] = tropisetron 5 mg/kg with 0.5 mg/kg Δ^9-THC

CCCCC/C=C\C\C=C/C=C/C=C/[C@@H](SC[C@H](NC(=O)CC[C@H](N)C(=O)O)C(=O)NCC(=O)O)[C@@H](O)CCCC(=O)O [LTC4]
emesis in the Least Shrew (Least Shrew): potent emetogens; also recorded: produce emesis

CCCCC/C=C\C/C=C\C/C=C\C/C=C\CCCC(=O)O [arachidonic acid]
emesis in the Least Shrew (Least Shrew): produce emesis

CCCCC/C=C\C\C=C/C=C/C=C/[C@@H](SC[C@H](N)C(=O)NCC(=O)O)[C@@H](O)CCCC(=O)O [LTD4]
emesis in the Least Shrew (Least Shrew): potent emetogens; also recorded: produce emesis

Cl.FC(F)(F)c1cc(CO[C@H]2CCCN[C@H]2c2ccccc2)cc(C(F)(F)F)c1 [L733060]
reduction in frequency of GR73632-induced emesis ([1]; antagonist 5 mg/kg i.p.): 62% | reduction in percentage of shrews vomiting in response to GR73632 ([1]; antagonist 5 mg/kg i.p.): 33% | reduction of GR73632-induced scratchings ([1]; antagonist 5 mg/kg i.p.): 63% | reduction in frequency of GR73632-induced emesis ([1]; antagonist 10 mg/kg i.p.): 74% | reduction in percentage of shrews vomiting in response to GR73632 ([1]; antagonist 10 mg/kg i.p.): 53% | reduction of GR73632-induced scratchings ([1]; antagonist 10 mg/kg i.p.): 69% | reduction in frequency of GR73632-induced emesis ([1]; antagonist 20 mg/kg i.p.): 95% | reduction in percentage of shrews vomiting in response to GR73632 ([1]; antagonist 20 mg/kg i.p.): 73% | reduction of GR73632-induced scratchings ([1]; antagonist 20 mg/kg i.p.): 54% | onset of first emesis induced by GR73632 ([1]; at highest tested effective antiemetic doses): only delayed the onset of first emesis

CCCCC/C=C\C\C=C/C=C/C=C/[C@@H](SC[C@H](N)C(=O)O)[C@@H](O)CCCC(=O)O [LTE4]
emesis in the Least Shrew (Least Shrew): non-emetic

CN1[C@@H]2CC[C@H]1C[C@@H](OC(=O)c1c[nH]c3ccccc13)C2 [tropisetron]
reduction in frequency of CIS-induced emesis ([2]; 0.25 mg/kg i.p., administered alone): 79% | reduction in frequency of CIS-induced emesis [2, 3]: 94% | reduction in percentage of shrews vomiting in response to CIS [2, 3]: 75% | reduction in frequency of CIS-induced emesis [2, 4]: 99.8% | reduction in percentage of shrews vomiting in response to CIS [2, 4]: 92% | reduction in number of shrews vomiting, over tested doses ([2]; drug by itself, dose-dependent): completely protected | reduction in frequency of CIS-induced emesis ([2]; tropisetron 0.025 mg/kg with 0.25 mg/kg Δ^9-THC): 60% | reduction in frequency of CIS-induced emesis ([2]; tropisetron 0.1 mg/kg with 0.25 mg/kg Δ^9-THC): 59.8% | reduction in frequency of CIS-induced emesis [2, 5]: 57.5% | reduction in percentage of shrews vomiting in response to CIS [2, 5]: 58% | reduction in frequency of CIS-induced emesis ([2]; tropisetron 0.25 mg/kg with 0.1 mg/kg Δ^9-THC, vs 0 mg/kg tropisetron): 88% | reduction in frequency of CIS-induced emesis [2, 6]: 84% | reduction in percentage of shrews vomiting in response to CIS [2, 6]: 50% | reduction in frequency of CIS-induced emesis [2, 7]: 70% | reduction in percentage of shrews vomiting in response to CIS [2, 7]: 50% | reduction in frequency of CIS-induced emesis [2, 8]: 90.6% | reduction in percentage of shrews vomiting in response to CIS [2, 8]: 78% | reduction in frequency of CIS-induced emesis [2, 9]: 100% | reduction in percentage of shrews vomiting in response to CIS [2, 9]: 100% | reduction in frequency of CIS-induced emesis [2, 10]: 70.1% | reduction in percentage of shrews vomiting in response to CIS [2, 10]: 83% | reduction in frequency of CIS-induced emesis [2, 11]: 89.4% | reduction in percentage of shrews vomiting in response to CIS [2, 11]: 71% | reduction in frequency of CIS-induced emesis [2, 12]: 93% | reduction in percentage of shrews vomiting in response to CIS [2, 12]: 70% | reduction in frequency of CIS-induced emesis [2, 13]: 69.8% | reduction in percentage of shrews vomiting in response to CIS [2, 13]: 58% | effect on frequency of CIS-induced vomiting ([2]; tropisetron, all doses, combined with 1 mg/kg or 5 mg/kg Δ^9-THC): None of the cited doses of tropisetron had a significant effect | effect on percentage of shrews vomiting ([2]; tropisetron, any dose, with 1 mg/kg and 5 mg/kg Δ^9-THC): no dose of tropisetron significantly altered

CCCCC/C=C\C\C=C/C=C/C=C/[C@@H]1O[C@H]1CCCC(=O)O [LTA4]
emesis in the Least Shrew (Least Shrew): non-emetic

CCCCC/C=C\C[C@@H](O)/C=C/C=C/C=C\[C@@H](O)CCCC(=O)O [LTB4]
emesis in the Least Shrew (Least Shrew): non-emetic

CCCCC/C=C\C\C=C/C=C/C=C/[C@@H](SC[C@H](NC(=O)CC[C@@H](N)C(=O)O)C(=O)O)[C@@H](O)CCCC(=O)O [LTF4]
emesis in the Least Shrew (Least Shrew): non-emetic

CCCCC[C@H](O)/C=C/[C@H]1C(=O)C[C@H](O)[C@@H]1C/C=C\CCCC(=O)O [PGD2]
emesis in the Least Shrew (Least Shrew): non-emetic

Source: patent US20110093959A1, “CRYPTOTIS PARVA SCREENING MODEL FOR ANTIEMETIC POTENTIAL” (priority 2008, published 2011)
